Measurements as given in patent US20080287375A1, “Selective Glycosidase Inhibitors, Methods of Making Inhibitors, and Uses Thereof” (SIMON FRASER UNIVERSITY, priority 2005, published 2008).

Tests used:
[1] = Intravenous glucose tolerance test (IVGTT) in rats; format: in vivo, rat; conditions: 50 mg kg^−1 tail vein
Description: Eight give-week old healthy Sprague-Dawley rats (Charles River) were caged in pairs. The animals were allowed to acclimatize to their new surroundings at the Simon Fraser University Animal Care Facilities (SFU ACF) for one week. At 3:00 pm, four rats were given a tail vein injection of 400 μl of inhibitor 9c dissolved in PBS buffer (pH 7.4) at a dose of 50 mg kg^−1. The remaining four rats were given a tail vein injection of 400 μl of PBS as a control. All solutions were pre-sterilized through a 0.2 μm filter (Millipore) and injected with 0.5 mL syringes containing a 28 gauge×0.5″ needle (Terumo) as bolus over 10 seconds. Food was withdrawn at approximately 11:00 pm. At 8:30 am the following morning, the rats were given a second injection. After three hours the rats were anesthetized with isoflurane and a 100 μL blood sample was taken from the jugular vein to measure the fasting blood glucose levels. An intravenous glucose tolerance test (IVGTT) was then performed. A 0.5 mL injection of a 50% w/v solution of glucose dissolved in PBS (pre-sterilized) was administered via the tail vein over 30 seconds. At 10, 20, 30, 40, 60, and 90 minutes after the injection of glucose, a 100 μL sample of blood was taken from the jugular vein. […] The soluble cell extract was then analyzed for levels O-GlcNAc modified proteins using Western blot analysis as described above for the cell studies.

[2] = test system: O-GlcNAc modified proteins in rat tissues; test: Clearance rate: time course of tissue O-GlcNAc levels in rats after tail vein injection; format: in vivo; conditions: 50 mg kg^−1 tail vein
Description: To obtain information for how rapid the inhibitor is cleared from tissues, five 10-week old Sprague-Dawley rats were given a tail vein injection of the inhibitor (50 mg kg^−1). The animals were sacrificed sequentially 3, 7, 24, 27, and 32 hours following the injection. Two additional rats were used as controls. One rat was sacrificed immediately before the others received their injections in order to obtain information about the normal levels of O-GlcNAc modified proteins. Also, one rat was injected with sterilized PBS (pH 7.4) along with the other rats and sacrificed at the end of the experiment (32 hours). Tissue collection, homogenization, and western blot analyses were done in the same matter as described above.

[3] = molecular target: T1, O-GlcNAcase (Homo sapiens, UniProt O60502)
T1 sequence (O60502 1-916): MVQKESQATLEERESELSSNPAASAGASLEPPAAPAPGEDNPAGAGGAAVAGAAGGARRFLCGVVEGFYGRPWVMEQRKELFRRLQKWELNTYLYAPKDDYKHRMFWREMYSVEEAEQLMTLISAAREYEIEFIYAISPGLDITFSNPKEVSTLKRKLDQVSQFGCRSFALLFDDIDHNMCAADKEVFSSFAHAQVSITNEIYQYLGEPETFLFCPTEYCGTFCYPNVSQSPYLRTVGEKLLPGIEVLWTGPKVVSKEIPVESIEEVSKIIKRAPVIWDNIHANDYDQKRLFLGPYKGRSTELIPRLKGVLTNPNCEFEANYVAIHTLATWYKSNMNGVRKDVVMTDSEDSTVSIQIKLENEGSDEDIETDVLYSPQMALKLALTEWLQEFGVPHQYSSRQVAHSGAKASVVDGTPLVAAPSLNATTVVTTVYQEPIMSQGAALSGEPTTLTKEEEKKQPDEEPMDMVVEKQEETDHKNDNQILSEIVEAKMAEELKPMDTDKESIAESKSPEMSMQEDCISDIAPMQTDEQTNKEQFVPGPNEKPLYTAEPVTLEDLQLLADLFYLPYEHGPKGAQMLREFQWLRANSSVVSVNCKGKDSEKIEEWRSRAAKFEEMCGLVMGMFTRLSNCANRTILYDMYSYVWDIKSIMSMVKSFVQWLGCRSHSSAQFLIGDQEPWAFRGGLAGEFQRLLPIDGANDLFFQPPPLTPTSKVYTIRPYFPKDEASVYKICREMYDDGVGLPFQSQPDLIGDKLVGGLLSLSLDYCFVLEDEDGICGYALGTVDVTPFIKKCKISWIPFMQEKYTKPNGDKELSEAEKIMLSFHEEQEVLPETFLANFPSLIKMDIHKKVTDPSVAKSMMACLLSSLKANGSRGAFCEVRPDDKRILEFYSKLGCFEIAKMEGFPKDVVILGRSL

[4] = molecular target: T1, O-GlcNAcase; test: biochemical
[5] = molecular target: human placental β-hexosaminidase; test: Inhibition of β-hexosaminidase, substrate MU-GlcNAc (5), Dixon plots; conditions: read-out: β-Hexosaminidase KI; Table 2; substrate 5 at 0.64 mM, pH 4.25, Dixon plots

CCCC1=N[C@@H]2[C@@H](O)[C@H](O)[C@@H](CO)O[C@@H]2S1 [Compound 9c, 1,2-dideoxy-2′-propyl-α-D-glucopyranoso-[2,1-d]-2′-thiazoline]
levels of O-GlcNAc modified proteins in rats of the IVGTT ([1]; Western blot): increased levels | glucose clearance rate in IVGTT ([1]; short term exposure (<24 hours), 1 g kg^−1 glucose challenge): does not affect the glucose clearance rate | cellular levels of O-GlcNAc modified proteins in brain, 24 hours after injection [2]: dropped | cellular levels of O-GlcNAc modified proteins in brain, seven hours after injection [2]: remained high | cellular levels of O-GlcNAc modified proteins in brain, three hours after injection [2]: marked increases | time after which O-GlcNAc levels return to normal levels ([2]; brain): about 32 hours | time to elevate O-GlcNAc levels in tissues ([2]; brain and muscle): < 3 h | time within which the inhibitor is cleared from the tissues and O-GlcNAc levels return to normal ([2]; brain and muscle): 24 to 32 h | KI for O-GlcNAcase greater than that of parent compound (9a) [3]: 3 fold | inhibition of O-GlcNAcase, in words [3]: potent inhibitors | selectivity for O-GlcNAcase over β-hexosaminidase, in words [3]: remarkable selectivity | selectivity ratio for O-GlcNAcase over β-hexosaminidase [3]: 1500 fold | Selectivity Ratio (β-Hex KI/O-GlcNAcase KI) ([3]; Table 2): 1500 | Ki [4]: 0.23 µM | Ki [5]: 340 µM
